# Assay results: patent US9328130B2, “Method of treating organism by biologically active compounds specifically delivered into mitochondria, pharmaceutical composition required for the use of the method and a compound applicable for this purpose” (MITOTECH S.A., priority 2005, dated 2016)
# How the values were obtained:
# [1] = system: respiratory chain of rat liver mitochondria; type: biochemical
# Method: FIG. 5 describes the oxidation of quinols of “MitoQ” and “SkQ1” by respiratory chain of rat liver mitochondria energized with succinate (5 mM) in the presence of 2 μM rotenone. After complete reduction of […] the respiratory chain was blocked with 25 mM malonate and reoxidation rate of “MitoQ” and “SkQ1” was measured. In order to examine whether the test compounds (SkQ1 and MitoQ) can be reduced by the respiratory chain of mitochondria, changes of the ratio between oxidized and reduced forms of test compounds were measured in the presence of respiratory substrates in a medium used for isolation of rat liver mitochondria. The measurements were carried out in the presence of mitochondria (protein concentration 0.2 mg/ml).
# Yarrowia lipolytica = test: Protection of yeast cells from death caused by hydrogen peroxide; type: cell-based
# [2] = system: Normal fibroblasts from the human skin and lung; test: Morphology and mobility of normal fibroblasts; type: cell-based; conditions: 20 nM for 6 days
# Method: Normal fibroblasts from the human skin and lung and HeLa cells were cultivated at low cell density (20-30% confluency). Morphometric measurements were carried out for cell area, dispersion and elongation. Cytoskeleton structures were analyzed by staining the fixed cell preparations with rhodamine falloidin (actin filaments), antibodies against tubulin (microtubules) and vinculin (surface contacts). Mobility of the cells was examined with the help of microvideo camera.
# [3] = Transfer across the planar bilayer phospholipid membrane; type: physicochemical; conditions: 50 mM TrisHCl pH 7.4; 10^−7 to 10^−5 M; distributes according to Nernst equation
# Excerpt: The experimental method has been used several times before in the experiments aimed at the exploring of an ability of different ions to penetrate the planar bilayer lipid membrane and is described in details Liberman […]., 1969, Nature, 222, 1076-8. This method includes the use of two chambers filled in with water-based solution and separated by bilayer membrane, also the electrometrical registration of transfer of charged compounds capable of penetration across such membrane from one chamber to another. In our experiment the membrane was made of mixture of […] and diphytanoyl derivative of […] dissolved in decane; both chambers were filled with 50 mM TrisHCl, pH 7.4 containing 10^-7 M SkQ1.
compound,measurement,setting,value
"CC1=C(C)C(=O)C(CCCCCCCCCC[P+](c2ccccc2)(c2ccccc2)c2ccccc2)=CC1=O.[Br-] [SkQ1, 2,3-dimethyl-1,4-benzoquinon-5-decyl-triphenylphosphonium bromide]",concentration not suppressing mitochondrial respiration,[1],up to 10 μM
same,time compound retains intact under incubation conditions in biological media,[1]; whole experiment,at least tens of minutes
same,concentration as effective as 25 μM α-tocopherol,Yarrowia lipolytica,10 -fold lower
same,death of cells caused by hydrogen peroxide,Yarrowia lipolytica; 10 mM hydrogen peroxide,partially prevents the death
same,effect on survival compared among protectants,"Yarrowia lipolytica; FIG. 14, α-tocopherol 25 μM",very similar
same,"amount of actin filaments, times higher",[2],3.7 times
same,dispersion index lowered by factor,[2],2.4
same,filament density in comparison to the control,[2],136%
same,"mean cell area, times higher than control",[2],2.9 times
same,mobility of fibroblasts,[2],distinctly lower
same,rate of fibroblast proliferation,[2],no influence on the rate of fibroblast proliferation
same,elongation index,[2]; control 2.34,0.69
same,penetration of planar bilayer phospholipid membrane,[3],penetrates the planar bilayer phospholipid membrane
